According to patent US20250152567A1, “COMPOUNDS FOR USE IN THE TREATMENT OF DYSTROPHINOPATHIES” (SOM INNOVATION BIOTECH, S.A., priority 2022, published 2025):
Where a name gives a salt, the structure may show the parent alone.

Assays:
utrophin-A expression = test: Utrophin upregulation in mdx^5cv myotubes (qRT-PCR for utrophin-A expression); assay type: cell-based; settings: Mus musculus, Myotube, 72 h, 3 days, RT-PCR, read-out: Utrophin upregulation (average of fold change utrophin vs DMSO ± sem)
Method: Isolation of satellite cell-derived primary myoblasts was performed via cell-surface antibodies and magnetic separation as previously described, and cultured for their expansion (Motohashi et al., J Vis Exp. 2014 Apr. 8; (86): 50846). Briefly, after collagenase (Worthington, CLS-2) treatment, dissociated cells from mdx^5cv mouse hindlimb muscle were incubated with anti-CD31 monoclonal antibody conjugated to phycoerythrin (eBioscience, 12-0311), anti-CD45 monoclonal antibody conjugated to phycoerythrin (eBioscience, 30-F11), anti-Scal monoclonal antibody conjugated to phycoerythrin (eBioscience, Dec-81) and anti-Integrin a7 (MBL International, ABIN487462), followed by anti-PE microbeads (Miltenyi Biotec, 130-048-801), and then performed LD column (Miltenyi Biotec, 130-042-901) separation. Negative cell populations were incubated with anti-Mouse IgG beads (Miltenyi Biotec, 130-048-402), and then MS column (Miltenyi Biotec, 130-042-201) separation was performed to isolate Integrin a7 (+) satellite cells. Satellite cell-derived mdx^5cv myoblasts were maintained in culture on collagen coated plates in myoblast medium containing 20% FBS and 20 ng/ml bFGF (Invitrogen, PHG0263) in HAM's-F10 medium. Cell cultures were maintained in a humidified incubator at 37° C. with 5% CO2 and 5% 02. The mdx^5cv myoblasts were induced to differentiate into multinucleated myotubes after low serum conditions (DMEM supplemented with 5% horse serum).
Halofuginone was obtained from Selleck. Veliflapon and cloricromen HCl were obtained from Sigma. Fabomotizole HCl was obtained from MedChemExpress. Difenpiramide was obtained from Enamine. Amopyroquine and alpelisib were obtained from Carbosynth. Benorilate and xipamide were obtained from Fluorochem. Altizide was obtained from Toronto Research Chemicals. All chemical compounds were dissolved with 100% DMSO to adjust to 10 mM stock solutions.
Every day compounds were added to mdx^5cv myotubes at different concentrations (0.01 to 10 μM) by replacement of the differentiation medium. After 3 days compound exposure, cells were harvested for RNA preparation by TRIzol reagent (15596026, ThermoFisher Scientific). Isolated RNA was used for cDNA synthesis using the Transcriptor First Strand cDNA synthesis kit (04379012001, Roche Molecular Diagnostics) using random primers. Diluted DMSO solution was used as a negative control vehicle. qRT-PCR assay for utrophin-A expression was performed using the following primers: Utro-F1 (Forward) 5′-[…]-3′ (SEQ ID NO: 1) and Utro-R1 (Reverse) 5′-[…]-3′ (SEQ ID NO: 2). 18S rRNA was used as an internal control, with the following primers: 18S-F1 (Forward) 5′-[…]-3′ (SEQ ID NO: 3) and 18S-R1 (Reverse) 5′-[…]-3′ (SEQ ID NO: 4). qPCR was performed using GoTaq qPCR Master Mix (A6001, Promega). All primers were synthesized as custom DNA oligos from Integrated DNA technologies (IDT). Analysis was done using the ACt method. Statistical analysis was performed with at least three independent experiments with between 2 and 4 replicates in each experiment.
The chemical compounds were tested in mdx^5cv myotubes at different concentrations for 3 days. Halofuginone was used as a positive control for the utrophin up-regulation.

[1] = system: DMD patient-derived 3D skeletal muscle tissues; test: Force of muscle contraction in response to electrical pulse stimulation in human 3D skeletal muscle tissues; assay type: cell-based; settings: 10 μM; for tetanic index (maximal tetanic specific force / maximal twitch specific force): 2 days (FIG. 3); for maximal twitch contractile force in response to electrical stimulation / tetanic contractile force in response to electrical stimulation: 2 days; for maximal twitch contractile force in response to electrical stimulation: 1 Hz EPS, compared with DMSO treated cells (FIG. 1); for tetanic contractile force in response to electrical stimulation: 50 Hz EPS, compared with DMSO treated cells (FIG. 2)
Method: Fabrication of Human 3D Skeletal Muscle Tissues and Treatment Human 3D skeletal muscle tissues were fabricated using polydimethylsiloxane (PDMS; Sylgard 184 silicone elastomer kit, Dow Corning) casting molds developed and fabricated as described in Fernández-Costa et al. 2022. Briefly, the casting molds design consists of a square-shaped pool, where the cells/hydrogel solution is seeded, and two vertical, flexible PDMS pillars. PDMS casting molds were prepared for muscle cell culture by first cleaning them by sonication on water with soap, 2-propanol, and Mili-Q water and sterilized with UV light for 15 min. It was followed by 1 h treatment with 1% Plurionic® F-127 (Sigma-Aldrich) solution in cold PBS (100 μl/well) at 4° C. Human 3D skeletal muscle tissues were generated using Immortalized human muscle satellite cells (iHuMSCs) from a DMD patient (DMD 2, clone G82) (Massenet et al. 2020). iHuMSCs were cultured in growth medium (skeletal muscle basal medium (PromoCell GmbH), skeletal muscle supplemental mix (PromoCell GmbH), 10% Fetal Bovine Serum (FBS) (Gibco™), 100 U/mL penicillin and 100 μg/ml streptomycin (Gibco™)). iHuMSCs were released from culture flasks via mild trypsinization. Cells were encapsulated at 2.5×10^7 cells/ml in a cell/hydrogel mixture of 30% v/v Corning® Matrigel® Growth Factor Reduced (GFR) Basement Membrane Matrix (Corning®), 2 units of thrombin from human plasma (Sigma-Aldrich) and 4 mg/mL of fibrinogen from human plasma (50% v/v) (Sigma-Aldrich). 35 μl was pipetted within each PDMS casting mold using cool tips to avoid premature polymerization.
The cell/hydrogel mixture was polymerized for 30 min at 37° C. followed by incubation in growth medium containing 1 mg/mL of 6-aminocaproic acid (ACA) (Sigma-Aldrich). ACA works as an antifibrinolytic, which avoids fibrin depolymerization. They were kept in growth media for two days and then switched to differentiation medium (Dulbecco's Modified Eagle Medium, high glucose, GlutaMAX™ Supplement (Gibco™), containing 1% KnockOut™ Serum replacement (Gibco™), 1% Insulin-Transferrin-Selenium-Ethanolamine (Gibco™) and 1% Penicillin-Streptomycin-Glutamine (Gibco™)) containing 1 mg/mL of ACA for seven days. Half of the volume of differentiation medium was replaced every two days. After five days of differentiation, the medium was replaced by differentiation medium with the drugs at 10 μM and 0.01% DMSO final concentration. The treatment was kept for 48 hours.
Human 3D skeletal muscle tissues were electrically stimulated after seven days of differentiation to induce muscle contraction. A custom-made device consisted of a 12-well plate with two graphite electrodes per well located on the lid was used to perform the EPS. PDMS casting molds were placed on a 12-well plate with fresh differentiation medium. The plate was placed on a Zeiss Axio Observer Z1/7 outfitted with the XL S1 cell incubator at 37° C. and 5% CO2. The device was connected to a pulse generator (Multifunction Generator WF1974, NF Corporation), and tissues were stimulated with electrical square-wave pulses of 1 V/mm, 1 ms of pulse width, and frequencies varying from 1 to 50 Hz. The contractibility in response of EPS of 1 Hz of frequency was evaluated to study twitch contraction dynamics. On the other hand, 50 Hz of frequency was applied to induce tetanic contractions.
Videos of the movement of the pillar of the casting molds in response to the muscle contractions were taken with a ZEISS Axio Observer Z1/7 microscope. Cross-sectional area and location of the tissues on the axis of the pillars were also recorded during the assay. Videos were analyzed using a custom-made Python script and the specific force performed from the tissues was calculated applying […] together with the calculated displacement of the pillar as done in Mestre et al. 2018. Tetanic index was calculated as the ratio between the maximal tetanic specific force divided by the maximal twitch specific force. […]

Structure (SMILES)	fold induction at 0.1 µM (utrophin-A expression)	fold induction at 1 µM (utrophin-A expression)	fold induction at 10 µM (utrophin-A expression)	tetanic index (maximal tetanic specific force / maximal twitch specific force) [1]	maximal twitch contractile force in response to electrical stimulation [1]	tetanic contractile force in response to electrical stimulation [1]
Cc1nc(NC(=O)N2CCC[C@H]2C(N)=O)sc1-c1ccnc(C(C)(C)C(F)(F)F)c1 [Alpelisib]	1.08 ± 0.09	1.45 ± 0.11	1.4 ± 0.13	–	–	–
C=CCSCC1Nc2cc(Cl)c(S(N)(=O)=O)cc2S(=O)(=O)N1 (stereo not drawn) [Altizide]	1.09 ± 0.07	1.33 ± 0.09	1.33 ± 0.09	–	–	–
Oc1ccc(Nc2ccnc3cc(Cl)ccc23)cc1CN1CCCC1 [Amopyroquine]	1.23 ± 0.11	1.1 ± 0.14	1.23 ± 0.37	–	–	–
CC(=O)Nc1ccc(OC(=O)c2ccccc2OC(C)=O)cc1 [Benorilate]	1.16 ± 0.12	1.04 ± 0.16	1.58 ± 0.29	–	–	–
CCOC(=O)COc1ccc2c(C)c(CCN(CC)CC)c(=O)oc2c1Cl [Cloricromen hydrochloride, Cloricromen]	1.06 ± 0.19	1.07 ± 0.22	1.34 ± 0.13	–	–	–
O=C(Cc1ccc(-c2ccccc2)cc1)Nc1ccccn1 [Difenpiramide]	1.24 ± 0.13	1.1 ± 0.21	1.23 ± 0.21	significant increase	increase	increase
CCOc1ccc2[nH]c(SCCN3CCOCC3)nc2c1 [Fabomotizole hydrochloride, Fabomotizole]	1.34 ± 0.07	1.04 ± 0.1	1.34 ± 0.19	–	–	–
O=C(CC1NCCCC1O)Cn1cnc2cc(Br)c(Cl)cc2c1=O (stereo not drawn) [Halofuginone]	1.44 ± 0.37	1.24 ± 0.1	1.3 ± 0.04	–	–	–
O=C(O)[C@@H](c1ccc(OCc2ccc3ccccc3n2)cc1)C1CCCC1 [Veliflapon]	1.43 ± 0.24	1.35 ± 0.02	1.05 ± 0.15	significant increase	increase	increase
Cc1cccc(C)c1NC(=O)c1cc(S(N)(=O)=O)c(Cl)cc1O [Xipamide]	1.25 ± 0.18	1.05 ± 0.17	1.18 ± 0.1	–	–	–
